Test results as given in patent US20100062478A1, “DRUG FOR ANALYSIS OF WATER TRANSPORT FUNCTION OF MEMBRANE PROTEIN IN BIOLOGICAL TISSUE” (priority 2007, published 2010).

Test system: aquaporin
Assay: Immersion of round radish slices in red food coloring water (Reference Example 1)
Description: Using radish that was cut into round slices with thicknesses of 6-10 cm, the bottom faces of the round slices were immersed in red food coloring water for 1-16 hours, As the red food coloring, Red No. 102 (chemical name: 7-hydroxy-8-(4-sulfonaphthylazo)-1,3-naphthylenedisulfonic acid=trisodium salt=1½ hydrate) was used.

O.O.O.O=S(=O)([O-])c1cc(S(=O)(=O)[O-])c2c(N=Nc3ccc(S(=O)(=O)[O-])c4ccccc34)c(O)ccc2c1.O=S(=O)([O-])c1cc(S(=O)(=O)[O-])c2c(N=Nc3ccc(S(=O)(=O)[O-])c4ccccc34)c(O)ccc2c1.[Na+].[Na+].[Na+].[Na+].[Na+].[Na+] [Red No. 102, 7-hydroxy-8-(4-sulfonaphthylazo)-1,3-naphthylenedisulfonic acid=trisodium salt=1½ hydrate]
permeation of red food coloring into radish tissue (bottom face of round slices immersed, one hour elapsed): had soaked into the connective tissue at the periphery of the round slices from the bottom face
permeation of red food coloring into radish tissue (round slices immersed for 16 hours): sites permeated by red food coloring water were not found anywhere other than the connective tissue
